“And” between values parts separate entries of the source, which are not always exact repeats. Identical values can stand only once. Like-named read-outs stand apart in the source and are kept apart here.
How the values were obtained:
EGFR-wt = EGFR-wt (Homo sapiens, UniProt P00533); assay: HTRF KinEASE-TK activity-based assay, EGFR-wt; settings: EGFR HTRF IC50 wt, ATP at Km (9.5 µM), 30 min preincubation; mean ± SD of three independent measurements in duplicates
EGFR-L858R = EGFR-L858R (Homo sapiens, UniProt P00533, L858R); assay: HTRF KinEASE-TK activity-based assay, EGFR-L858R
EGFR-L858R/T790M = EGFR-L858R/T790M (Homo sapiens, UniProt P00533, L858R/T790M); assay: HTRF KinEASE-TK activity-based assay, EGFR-L858R/T790M; settings: EGFR HTRF IC50 L858R/T790M, ATP at Km (4 µM), 30 min preincubation; mean ± SD of three independent measurements in duplicates
[1] = Microsomal stability (phase I), mouse; format: in vitro ADME; settings: mouse liver microsomes, up to 60 minutes, 37 °C
Method: Microsomal stability (phase I) assay.
Metabolic stability under oxidative conditions was measured in liver microsomes from different
time up to 50 minutes (HLM) or 60 minutes (MLM) at 37 °C. Based on the compound half-life t1/2,
the in vitro intrinsic clearance CLint was calculated. […]

[2] = test system: H1975 cells (EGFR-L858R/T790M); assay: CellTiter-Glo viability assay, H1975
[3] = test system: A431 cells (EGFR wild type); assay: CellTiter-Glo viability assay, A431; settings: Homo sapiens, A-431, 96 h, read-out: EGFR CTG EC50 A431, A431, 96 hours, CellTiter-Glo
[4] = test system: HCC827 cells (EGFR-delE746_A750); assay: CellTiter-Glo viability assay, HCC827; format: cell-based; settings: Homo sapiens; HCC827, 96 hours, CellTiter-Glo; read-out: EGFR CTG EC50 HCC827;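 also: luminescence from ATP content as a measure of metabolically active cells, in RPMI with 10% FBS, compound added as serial dilutions after 24 h of preculture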
H358 cells (KRAS mutant) = assay: CellTiter-Glo viability assay, H358; format: cell-based; settings: Homo sapiens, NCI-H358; H358, 96 hours, CellTiter-Glo; read-out: KRAS CTG EC50 H358;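 also: viable cell number estimated from ATP-dependent luminescence following exposure to serially diluted inhibitor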
A549 cells (KRAS mutant) = assay: CellTiter-Glo viability assay, A549; settings: Homo sapiens, A549, 96 h, read-out: KRAS CTG EC50 A549
[5] = Homo sapiens, NCI-H1975, 96 h, read-out: EGFR CTG EC50 H1975, H1975, 96 hours, CellTiter-Glo
[6] = read-out: EGFR CTG EC50 H1975, H1975, 96 hours, CellTiter-Glo

Sequence of EGFR-L858R (P00533 25-1210 L858R): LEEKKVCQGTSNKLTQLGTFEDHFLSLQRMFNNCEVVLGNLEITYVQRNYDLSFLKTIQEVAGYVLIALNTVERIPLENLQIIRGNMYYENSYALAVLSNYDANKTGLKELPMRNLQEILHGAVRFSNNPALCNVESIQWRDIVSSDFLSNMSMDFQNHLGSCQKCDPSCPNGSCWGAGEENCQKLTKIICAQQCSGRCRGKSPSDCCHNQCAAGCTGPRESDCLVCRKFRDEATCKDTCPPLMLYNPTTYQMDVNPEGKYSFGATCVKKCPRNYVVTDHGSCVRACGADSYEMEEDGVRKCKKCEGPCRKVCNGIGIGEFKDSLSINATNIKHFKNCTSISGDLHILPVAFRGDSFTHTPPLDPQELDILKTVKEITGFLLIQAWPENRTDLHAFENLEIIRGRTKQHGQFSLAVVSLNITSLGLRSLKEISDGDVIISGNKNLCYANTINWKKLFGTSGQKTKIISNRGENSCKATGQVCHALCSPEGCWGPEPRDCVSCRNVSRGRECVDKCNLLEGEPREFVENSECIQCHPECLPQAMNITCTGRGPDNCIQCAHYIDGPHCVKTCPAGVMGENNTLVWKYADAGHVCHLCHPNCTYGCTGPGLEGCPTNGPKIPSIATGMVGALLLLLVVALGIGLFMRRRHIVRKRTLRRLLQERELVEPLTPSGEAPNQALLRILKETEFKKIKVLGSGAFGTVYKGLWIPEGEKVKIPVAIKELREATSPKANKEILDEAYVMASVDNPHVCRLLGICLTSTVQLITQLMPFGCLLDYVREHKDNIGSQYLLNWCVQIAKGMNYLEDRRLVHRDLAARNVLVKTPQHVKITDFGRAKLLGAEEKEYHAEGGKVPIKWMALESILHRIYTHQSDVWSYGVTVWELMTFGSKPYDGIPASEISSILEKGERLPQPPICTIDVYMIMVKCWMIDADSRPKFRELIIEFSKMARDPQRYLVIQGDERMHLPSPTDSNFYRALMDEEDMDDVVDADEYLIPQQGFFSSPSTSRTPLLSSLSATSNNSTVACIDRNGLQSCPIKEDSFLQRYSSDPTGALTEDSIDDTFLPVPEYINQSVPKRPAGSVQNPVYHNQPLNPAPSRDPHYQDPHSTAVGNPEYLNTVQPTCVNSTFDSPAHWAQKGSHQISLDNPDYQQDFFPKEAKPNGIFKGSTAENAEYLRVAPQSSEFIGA
Sequence of EGFR-wt (P00533 25-1210): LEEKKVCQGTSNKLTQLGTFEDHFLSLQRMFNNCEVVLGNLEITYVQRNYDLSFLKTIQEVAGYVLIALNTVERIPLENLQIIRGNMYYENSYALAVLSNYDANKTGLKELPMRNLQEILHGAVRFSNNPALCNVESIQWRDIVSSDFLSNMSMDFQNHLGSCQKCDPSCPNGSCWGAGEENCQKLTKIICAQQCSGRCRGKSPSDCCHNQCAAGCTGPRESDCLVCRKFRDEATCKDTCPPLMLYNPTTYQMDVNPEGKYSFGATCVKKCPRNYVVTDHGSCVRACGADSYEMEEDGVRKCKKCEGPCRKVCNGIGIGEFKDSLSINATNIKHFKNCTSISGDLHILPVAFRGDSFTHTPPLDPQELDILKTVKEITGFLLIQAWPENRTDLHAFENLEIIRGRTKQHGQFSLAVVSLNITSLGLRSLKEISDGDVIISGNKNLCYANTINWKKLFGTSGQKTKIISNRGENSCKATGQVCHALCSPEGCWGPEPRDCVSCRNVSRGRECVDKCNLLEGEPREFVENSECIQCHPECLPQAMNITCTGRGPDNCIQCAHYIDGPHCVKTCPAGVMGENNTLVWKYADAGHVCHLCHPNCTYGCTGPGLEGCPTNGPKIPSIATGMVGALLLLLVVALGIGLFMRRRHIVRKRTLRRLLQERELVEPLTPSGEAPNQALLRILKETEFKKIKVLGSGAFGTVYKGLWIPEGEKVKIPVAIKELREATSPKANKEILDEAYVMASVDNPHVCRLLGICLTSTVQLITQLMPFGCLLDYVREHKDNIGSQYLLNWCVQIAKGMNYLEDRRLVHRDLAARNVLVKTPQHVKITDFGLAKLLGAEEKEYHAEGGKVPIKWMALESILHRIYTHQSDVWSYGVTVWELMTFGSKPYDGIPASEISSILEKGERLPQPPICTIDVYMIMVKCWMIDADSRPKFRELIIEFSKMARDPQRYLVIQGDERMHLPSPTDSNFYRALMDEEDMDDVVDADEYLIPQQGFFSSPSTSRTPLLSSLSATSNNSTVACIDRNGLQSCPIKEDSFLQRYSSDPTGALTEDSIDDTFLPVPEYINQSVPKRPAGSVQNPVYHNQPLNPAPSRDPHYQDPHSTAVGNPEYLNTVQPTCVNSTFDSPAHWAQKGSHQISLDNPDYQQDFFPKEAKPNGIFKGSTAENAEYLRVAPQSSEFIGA
Sequence of EGFR-L858R/T790M (P00533 25-1210 T790M/L858R): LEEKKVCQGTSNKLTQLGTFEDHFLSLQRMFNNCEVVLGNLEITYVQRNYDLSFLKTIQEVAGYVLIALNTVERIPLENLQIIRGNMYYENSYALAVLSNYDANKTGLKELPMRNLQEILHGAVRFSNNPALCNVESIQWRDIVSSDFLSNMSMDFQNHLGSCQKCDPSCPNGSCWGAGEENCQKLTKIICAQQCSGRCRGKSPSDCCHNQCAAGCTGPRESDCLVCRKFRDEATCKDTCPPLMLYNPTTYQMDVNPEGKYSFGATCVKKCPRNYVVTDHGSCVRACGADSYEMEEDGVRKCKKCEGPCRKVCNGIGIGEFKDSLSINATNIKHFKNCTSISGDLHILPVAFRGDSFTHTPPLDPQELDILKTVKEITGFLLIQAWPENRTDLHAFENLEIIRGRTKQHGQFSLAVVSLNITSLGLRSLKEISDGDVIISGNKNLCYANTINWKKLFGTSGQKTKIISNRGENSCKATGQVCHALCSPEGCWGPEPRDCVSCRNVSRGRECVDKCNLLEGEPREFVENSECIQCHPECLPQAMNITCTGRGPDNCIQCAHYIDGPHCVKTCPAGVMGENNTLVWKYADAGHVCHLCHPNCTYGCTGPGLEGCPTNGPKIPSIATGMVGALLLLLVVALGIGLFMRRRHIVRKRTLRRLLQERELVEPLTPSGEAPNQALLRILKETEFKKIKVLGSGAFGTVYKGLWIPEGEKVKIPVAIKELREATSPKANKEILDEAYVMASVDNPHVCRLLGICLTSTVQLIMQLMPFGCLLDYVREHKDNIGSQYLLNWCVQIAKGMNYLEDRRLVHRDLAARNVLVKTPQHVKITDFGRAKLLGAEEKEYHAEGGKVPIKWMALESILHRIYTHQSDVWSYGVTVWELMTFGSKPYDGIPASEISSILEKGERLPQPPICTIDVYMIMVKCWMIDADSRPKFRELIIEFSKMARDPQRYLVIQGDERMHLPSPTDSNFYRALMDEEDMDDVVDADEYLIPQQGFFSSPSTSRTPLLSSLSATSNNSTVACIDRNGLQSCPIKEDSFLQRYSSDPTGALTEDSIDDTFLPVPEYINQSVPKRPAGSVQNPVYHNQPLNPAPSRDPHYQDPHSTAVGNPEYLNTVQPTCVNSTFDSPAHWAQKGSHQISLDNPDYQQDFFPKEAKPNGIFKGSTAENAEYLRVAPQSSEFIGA

IC50 (EGFR-wt) [nM] | IC50 (EGFR-L858R) [nM] | IC50 (EGFR-L858R/T790M) | microsomal CLint at 3 µM [1] [µL/min/mg] | EC50 [2, 5] [nM] | EC50 [3] [nM] | EC50 [4] [nM] | EC50 (H358 cells (KRAS mutant)) [nM] | EC50 (A549 cells (KRAS mutant)) [nM] | EC50 [2, 6] [nM] | SMILES
0.2 | < 0.1 | < 0.1 nM | 128 | 107 ± 45 | 1790 ± 744 | – | – | – | – | C=CC(=O)Nc1cccc(-c2c(-c3ccc(N4CCN(C)CC4)cc3)[nH]c3ncnc(OC4CCCC4)c23)c1 [Compound 19f]
12 ± 4 | 12 ± 4 | 24 ± 12 nM | – | – | – | 557 ± 266 | > 30000 | > 30000 | – | C=CC(=O)Nc1cccc(-c2c(-c3ccc(N4CCN(C)CC4)cc3)[nH]c3nc[nH]c(=O)c23)c1 [Compound 19i]
0.2 ± 0.1 | < 0.1 | < 0.1 nM | – | ~300 | – | < 14 | 1100 | 956 | 298 ± 251 | C=CC(=O)Nc1cc(-c2c(-c3ccc(N4CCN(C)CC4)cc3)[nH]c3ncnc(OC)c23)ccc1OCCOC [Compound 20a]
1.2 ± 0.1 | 0.5 | 0.5 nM | – | < 200 | 1140 ± 350 | 82 ± 20 | 9510 ± 403 | 8820 ± 697 | 188 ± 64 | C=CC(=O)Nc1cccc(-c2c(-c3ccc(N4CCN(C)CC4)cc3)[nH]c3ncn(C)c(=O)c23)c1 [Compound 29a]
5.1 ± 0.1 | 4 ± 2.7 | 4.9 ± 1.3 nM | – | 183 ± 48 | 1020 ± 335 | 22 ± 2 | 2040 | 1390 | – | C#CCn1cnc2[nH]c(-c3ccc(N4CCN(C)CC4)cc3)c(-c3cccc(NC(=O)C=C)c3)c2c1=O [Compound 29c]
0.2 | 0.3 ± 0.3 | 4.5 ± 0.8 nM | – | 550 ± 157 | 767 ± 151 | < 14 | 3270 ± 693 | 2970 ± 1070 | – | C=CC(=O)Nc1cccc(-c2c(-c3ccc(N4CCN(C)CC4)cc3)[nH]c3ncn(CCCC)c(=O)c23)c1 [Compound 29d]
0.4 ± 0.1 | 0.1 ± 0.1 | 0.9 ± 0.1 nM | – | 723 ± 188 | 1870 ± 595 | < 14 | > 30000 | 22400 ± 11200 | – | C=CC(=O)Nc1cccc(-c2c(-c3ccc(N4CCN(C)CC4)cc3)[nH]c3ncn(CCSC)c(=O)c23)c1 [Compound 29e]
4.6 ± 1.1 | 1.7 ± 0.5 | 20 ± 6 nM | – | – | – | 134 | 11900 | 24700 ± 7550 | – | C=CC(=O)Nc1cccc(-c2c(-c3ccc(N4CCN(C)CC4)cc3)[nH]c3ncn(CCCSC)c(=O)c23)c1 [Compound 29f]
0.8 ± 0.2 | 0.2 ± 0.1 | > 1 nM and 3.4 nM | – | 686 ± 199 | 1100 ± 506 | 45 ± 7 | 6840 ± 866 | 6140 ± 2120 | – | C=CC(=O)Nc1cccc(-c2c(-c3ccc(N4CCN(C)CC4)cc3)[nH]c3ncn(CC(C)C)c(=O)c23)c1 [Compound 29h]
1.1 ± 0.8 | 0.9 ± 0.6 | > 1 nM and 7.7 nM | – | 228 ± 73 | 453 ± 218 | < 14 | 1790 ± 520 | 1380 ± 985 | – | C=CC(=O)Nc1cccc(-c2c(-c3ccc(N4CCN(C)CC4)cc3)[nH]c3ncn(CC4CC4)c(=O)c23)c1 [Compound 29k]
1 ± 0.2 | 1.5 ± 0.8 | > 1 nM and 21 nM | – | 1570 ± 260 | 1080 ± 169 | 44 ± 26 | > 30000 | 25200 ± 8250 | – | C=CC(=O)Nc1cccc(-c2c(-c3ccc(N4CCN(C)CC4)cc3)[nH]c3ncn(Cc4ccccc4)c(=O)c23)c1 [Compound 29l]
– | – | – | – | 296 ± 64 | 4380 ± 1390 | < 14 | – | – | – | Cc1cc(C(=O)Nc2nc3cccc(Cl)c3n2[C@@H]2CCCCN(C(=O)/C=C/CN(C)C)C2)ccn1 [EGF816, nazartinib, reference compound]
– | – | – | – | 145 ± 86 | 1910 ± 467 | 45 ± 11 | – | – | – | C=CC(=O)Nc1cccc(Nc2nc(Nc3ccc(N4CCN(C(C)=O)CC4)cc3OC)ncc2C(F)(F)F)c1 [Rociletinib, rociletinib, reference compound]

Source: publication PMC6886544
